Columns and labels:
[1] = biological target: T1, Receptor-type tyrosine-protein kinase FLT3 (Homo sapiens, UniProt P36888); test: Binding affinity to human FLT3 by KINOMEscan assay
T1 sequence (P36888 whole entry): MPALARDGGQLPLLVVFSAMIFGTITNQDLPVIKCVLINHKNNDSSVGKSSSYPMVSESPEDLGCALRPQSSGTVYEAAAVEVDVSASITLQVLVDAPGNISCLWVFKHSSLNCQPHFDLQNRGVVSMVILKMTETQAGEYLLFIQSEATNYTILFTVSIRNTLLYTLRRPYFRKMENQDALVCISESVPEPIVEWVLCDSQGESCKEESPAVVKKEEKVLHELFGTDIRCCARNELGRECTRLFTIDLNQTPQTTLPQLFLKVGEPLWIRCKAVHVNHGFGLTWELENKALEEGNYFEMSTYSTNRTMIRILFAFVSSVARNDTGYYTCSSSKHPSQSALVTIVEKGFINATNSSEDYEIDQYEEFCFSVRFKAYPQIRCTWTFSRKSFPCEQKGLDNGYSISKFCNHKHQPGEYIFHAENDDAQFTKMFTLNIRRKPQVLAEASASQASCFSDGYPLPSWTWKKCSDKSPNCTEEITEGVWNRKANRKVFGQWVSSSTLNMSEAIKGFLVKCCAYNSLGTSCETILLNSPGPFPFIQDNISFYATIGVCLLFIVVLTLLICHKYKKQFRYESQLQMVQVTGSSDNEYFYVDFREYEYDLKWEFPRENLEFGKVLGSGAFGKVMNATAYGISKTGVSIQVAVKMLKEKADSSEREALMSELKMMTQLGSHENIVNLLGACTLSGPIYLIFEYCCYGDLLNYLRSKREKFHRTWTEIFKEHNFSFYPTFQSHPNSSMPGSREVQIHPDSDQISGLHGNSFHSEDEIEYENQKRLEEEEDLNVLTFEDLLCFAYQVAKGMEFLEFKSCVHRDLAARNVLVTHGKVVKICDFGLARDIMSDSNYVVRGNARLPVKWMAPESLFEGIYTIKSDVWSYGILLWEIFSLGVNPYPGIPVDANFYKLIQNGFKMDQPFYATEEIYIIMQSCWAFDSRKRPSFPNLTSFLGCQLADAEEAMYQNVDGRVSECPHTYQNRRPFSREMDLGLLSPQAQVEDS

Cytochrome P450 2C9 = Cytochrome P450 2C9 (Homo sapiens, UniProt P11712); test: Inhibition of CYP2C9 in human liver microsomes assessed as diclofenac 4-hydroxylation reaction measured after 30 mins by LC/MS/MS analysis; assay type: ADME, Microsome
Sequence of Cytochrome P450 2C9 (P11712 whole entry): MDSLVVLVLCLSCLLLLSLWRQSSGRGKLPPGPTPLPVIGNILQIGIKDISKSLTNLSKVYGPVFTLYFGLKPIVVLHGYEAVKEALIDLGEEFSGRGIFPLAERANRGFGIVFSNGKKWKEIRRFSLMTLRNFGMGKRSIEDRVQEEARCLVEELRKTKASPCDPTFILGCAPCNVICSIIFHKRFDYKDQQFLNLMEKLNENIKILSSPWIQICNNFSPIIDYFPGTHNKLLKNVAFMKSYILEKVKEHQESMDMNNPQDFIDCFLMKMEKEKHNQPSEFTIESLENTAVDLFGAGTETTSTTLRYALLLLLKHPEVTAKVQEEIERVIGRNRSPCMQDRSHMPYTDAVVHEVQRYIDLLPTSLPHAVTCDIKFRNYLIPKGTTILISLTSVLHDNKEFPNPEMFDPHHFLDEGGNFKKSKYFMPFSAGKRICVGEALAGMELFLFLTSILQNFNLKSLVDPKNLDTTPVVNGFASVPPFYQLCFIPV

Cytochrome P450 2C19 = Cytochrome P450 2C19 (Homo sapiens, UniProt P33261); test: Inhibition of CYP2C19 in human liver microsomes assessed as S-mephenytoin 4-hydroxylation reaction measured after 30 mins by LC/MS/MS analysis; assay type: ADME, Microsome
Sequence of Cytochrome P450 2C19 (P33261 whole entry): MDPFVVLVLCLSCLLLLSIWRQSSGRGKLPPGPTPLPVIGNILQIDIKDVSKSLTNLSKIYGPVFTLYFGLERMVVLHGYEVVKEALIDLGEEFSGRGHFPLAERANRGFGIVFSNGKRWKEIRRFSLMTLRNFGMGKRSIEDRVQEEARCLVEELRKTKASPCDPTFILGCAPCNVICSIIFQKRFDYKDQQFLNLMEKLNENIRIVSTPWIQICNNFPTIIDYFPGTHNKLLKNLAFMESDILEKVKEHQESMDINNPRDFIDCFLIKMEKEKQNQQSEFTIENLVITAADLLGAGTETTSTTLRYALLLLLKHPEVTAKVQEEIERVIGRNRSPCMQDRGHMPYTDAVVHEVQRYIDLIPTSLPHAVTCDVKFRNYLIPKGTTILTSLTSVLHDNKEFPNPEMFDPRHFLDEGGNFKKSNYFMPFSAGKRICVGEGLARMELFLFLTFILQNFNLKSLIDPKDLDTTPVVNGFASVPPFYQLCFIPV

[2] = biological target: T2, Cyclin-G-associated kinase (Homo sapiens, UniProt O14976)
T2 sequence (O14976 whole entry): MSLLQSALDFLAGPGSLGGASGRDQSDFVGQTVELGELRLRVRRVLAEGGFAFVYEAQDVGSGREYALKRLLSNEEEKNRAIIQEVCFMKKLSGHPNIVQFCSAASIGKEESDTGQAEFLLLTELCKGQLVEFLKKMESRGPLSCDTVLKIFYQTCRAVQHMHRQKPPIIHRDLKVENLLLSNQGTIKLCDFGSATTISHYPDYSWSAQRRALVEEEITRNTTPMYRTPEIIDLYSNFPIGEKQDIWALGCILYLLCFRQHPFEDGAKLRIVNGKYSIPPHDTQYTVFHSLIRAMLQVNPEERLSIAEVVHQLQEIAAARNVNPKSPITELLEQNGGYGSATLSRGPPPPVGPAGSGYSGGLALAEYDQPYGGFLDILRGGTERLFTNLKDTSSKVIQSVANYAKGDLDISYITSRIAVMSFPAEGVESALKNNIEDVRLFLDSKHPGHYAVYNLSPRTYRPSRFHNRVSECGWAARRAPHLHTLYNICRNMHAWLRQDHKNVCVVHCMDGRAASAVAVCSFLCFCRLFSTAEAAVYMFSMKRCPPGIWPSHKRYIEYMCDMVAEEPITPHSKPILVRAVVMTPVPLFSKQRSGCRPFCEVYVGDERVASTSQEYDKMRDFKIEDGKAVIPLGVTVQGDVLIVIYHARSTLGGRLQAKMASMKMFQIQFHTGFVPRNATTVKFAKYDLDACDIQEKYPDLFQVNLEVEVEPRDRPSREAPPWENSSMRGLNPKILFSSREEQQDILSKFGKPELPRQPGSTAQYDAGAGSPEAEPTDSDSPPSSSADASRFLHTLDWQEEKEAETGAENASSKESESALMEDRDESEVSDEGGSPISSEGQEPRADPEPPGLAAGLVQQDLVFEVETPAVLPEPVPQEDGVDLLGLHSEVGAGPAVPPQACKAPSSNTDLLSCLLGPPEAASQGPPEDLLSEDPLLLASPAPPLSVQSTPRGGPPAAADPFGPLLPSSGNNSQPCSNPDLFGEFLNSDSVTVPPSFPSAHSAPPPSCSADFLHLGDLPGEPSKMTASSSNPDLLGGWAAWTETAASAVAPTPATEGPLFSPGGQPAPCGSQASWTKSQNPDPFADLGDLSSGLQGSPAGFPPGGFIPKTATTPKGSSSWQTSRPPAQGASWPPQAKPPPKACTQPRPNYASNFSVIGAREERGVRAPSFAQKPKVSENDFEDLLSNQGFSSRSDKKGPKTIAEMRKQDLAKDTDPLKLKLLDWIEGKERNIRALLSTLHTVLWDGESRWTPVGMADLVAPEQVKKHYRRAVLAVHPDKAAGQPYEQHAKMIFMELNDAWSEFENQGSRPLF
Description: Binding affinity to human GAK by KINOMEscan assay

[3] = biological target: T3, Dual specificity mitogen-activated protein kinase kinase 5 (Homo sapiens, UniProt Q13163)
T3 sequence (Q13163 whole entry): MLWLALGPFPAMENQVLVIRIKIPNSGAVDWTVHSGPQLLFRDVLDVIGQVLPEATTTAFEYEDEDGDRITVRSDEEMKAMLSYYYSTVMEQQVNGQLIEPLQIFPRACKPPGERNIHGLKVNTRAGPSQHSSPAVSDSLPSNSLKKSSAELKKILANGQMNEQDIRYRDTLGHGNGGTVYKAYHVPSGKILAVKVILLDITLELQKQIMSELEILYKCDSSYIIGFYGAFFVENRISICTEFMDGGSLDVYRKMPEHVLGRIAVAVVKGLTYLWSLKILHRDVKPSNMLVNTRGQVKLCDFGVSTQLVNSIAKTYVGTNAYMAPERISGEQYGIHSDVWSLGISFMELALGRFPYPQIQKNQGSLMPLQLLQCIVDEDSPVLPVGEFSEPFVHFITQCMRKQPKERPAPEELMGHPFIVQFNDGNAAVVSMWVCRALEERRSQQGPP
Description: Binding affinity to human MEK5 by KINOMEscan assay

Which IC50 [1] does the source give for COc1nc(-c2cc(-c3cnn(C)c3)cnc2N)cc2c1C(=O)N(CC(F)(F)F)CC2 here?
Its IC50 is 85 nM.

What about the IC50 (Cytochrome P450 2C9) of the same compound?
The IC50 was > 50000 nM.

And the IC50 (Cytochrome P450 2C19)?
The IC50 was > 50000 nM.

What about the IC50 [2] of the same compound?
The IC50 was 492 nM.

And the IC50 [3]?
The IC50 was 2650 nM.
